Columns and labels:
[1] = biological target: T1, human sphingosine-1-phosphate receptor 1 (S1P1) (Homo sapiens, UniProt P21453); test: Inhibition of cAMP production (HTRF cAMP HiRange), S1P1 CHO-K1 cells; format: cell-based; conditions: for Emax: CHO-K1, efficacy normalized to maximum efficacy of fingolimod, read-out: hS1P1 CAMP SPAN; for EC50: read-out: hS1P1 CAMP pEC50 (converted)
Summary of the method: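 CHO-K1 cells co-expressing human S1P1 (C-terminal ProLink tag) and EA-β-arrestin2, plated overnight; after 30 min compound incubation at 37 °C, intracellular cAMP measured by HTRF TR-FRET following 1 h at room temperature. Values normalized to fingolimod.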
Target sequence in this assay (P21453 whole entry): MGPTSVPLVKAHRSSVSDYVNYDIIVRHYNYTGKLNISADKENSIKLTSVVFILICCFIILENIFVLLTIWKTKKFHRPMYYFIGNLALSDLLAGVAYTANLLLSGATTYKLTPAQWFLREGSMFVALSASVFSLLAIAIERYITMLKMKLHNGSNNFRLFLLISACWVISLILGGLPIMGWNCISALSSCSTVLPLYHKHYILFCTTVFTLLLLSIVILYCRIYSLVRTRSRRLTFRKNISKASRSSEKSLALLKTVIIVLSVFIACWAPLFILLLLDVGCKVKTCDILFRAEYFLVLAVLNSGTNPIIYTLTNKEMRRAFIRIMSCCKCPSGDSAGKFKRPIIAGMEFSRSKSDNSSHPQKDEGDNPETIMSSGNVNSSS

[2] = biological target: T1, human sphingosine-1-phosphate receptor 1 (S1P1); test: β-Arrestin2 recruitment assay (PathHunter), S1P1 CHO-K1 cells; format: cell-based; conditions: for Emax: efficacy normalized to maximum efficacy of fingolimod, read-out: hS1P1 B-arrestin2 SPAN; for EC50: β-arrestin2 recruitment, read-out: hS1P1 B-arrestin2 pEC50 (converted)
Summary of the method: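 CHO-K1 cells co-expressing EA-β-arrestin2 and ProLink-tagged human S1P1 plated overnight, then stimulated 60 min at 37 °C. Enzyme-fragment complementation (β-galactosidase) detected after 1 h at room temperature by luminescence; values normalized to fingolimod.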
Target sequence in this assay (P21453 whole entry): as above
Target sequence in this assay (P32121 whole entry partner): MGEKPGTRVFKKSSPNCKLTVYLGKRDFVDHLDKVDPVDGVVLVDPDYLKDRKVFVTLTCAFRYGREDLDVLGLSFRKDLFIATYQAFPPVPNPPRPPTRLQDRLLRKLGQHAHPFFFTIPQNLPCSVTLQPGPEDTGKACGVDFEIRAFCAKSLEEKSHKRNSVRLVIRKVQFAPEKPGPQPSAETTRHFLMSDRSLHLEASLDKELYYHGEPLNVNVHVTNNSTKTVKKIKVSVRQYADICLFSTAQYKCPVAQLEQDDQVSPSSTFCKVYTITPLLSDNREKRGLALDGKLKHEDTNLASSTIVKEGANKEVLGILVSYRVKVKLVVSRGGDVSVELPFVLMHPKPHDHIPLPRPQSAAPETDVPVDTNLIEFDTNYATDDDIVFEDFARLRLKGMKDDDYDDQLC

[3] = inhibition of cAMP production, S1P1
[4] = inhibition of cAMP production, potency
[5] = CHO-K1, β-arrestin2 recruitment

Structure (SMILES): CC1CC(=O)c2ccc(-c3nc(-c4cccnc4)no3)cc2O1 (stereo not drawn) [Compound 535, 2-methyl-7-[3-(pyridin-3-yl)-1,2,4-oxadiazol-5-yl]-3,4-dihydro-2H-1-benzopyran-4-one]
- Emax [1]: < 75%
- EC50 [1, 3]: > 316 nM
- Emax ([2]; CHO-K1): < 75%
- EC50 ([2]; S1P1): < 10000 nM

Structure (SMILES): CCCn1nnc2cc(-c3nc(-c4cccc(C)c4)no3)ccc21 [Compound 54, 5-[3-(3-methylphenyl)-1,2,4-oxadiazol-5-yl]-1-propyl-1H-1,2,3-benzotriazole]
- Emax ([1]; inhibition of cAMP production): < 75%
- EC50 [1, 4]: > 316 nM
- Emax [2, 5]: > 75%
- EC50 ([2]; potency): > 10000 nM

Structure (SMILES): COc1ccccc1-c1noc(-c2ccc3c(c2)ncn3C(C)C)n1 [Compound 373, 5-(1-isopropyl-1H-benzo[d]imidazol-5-yl)-3-(2-methoxy-phenyl)-1,2,4-oxadiazole]
- Emax [1]: > 75%
- EC50 [1, 3]: > 316 nM
- Emax ([2]; CHO-K1): > 75%
- EC50 ([2]; S1P1): > 10000 nM

Structure (SMILES): O=C1CC(CO)(CO)Oc2ccc(-c3nc(-c4ccncc4)no3)cc21 [Compound 482, 2,2-bis(hydroxymethyl)-6-[3-(pyridin-4-yl)-1,2,4-oxadiazol-5-yl]-3,4-dihydro-2H-1-benzopyran-4-one]
- Emax [1]: < 75%
- EC50 [1, 3]: > 316 nM
- Emax ([2]; CHO-K1): > 75%
- EC50 ([2]; S1P1): > 10000 nM

Structure (SMILES): CC(C)Oc1ccccc1-c1noc(-c2ccc3c(c2)nnn3C(C)C)n1 [Compound 62, 3-(2-isopropoxyphenyl)-5-(1-isopropyl-1H-benzo[d][1,2,3]triazol-5-yl)-1,2,4-oxadiazole]
- Emax ([1]; inhibition of cAMP production): > 75%
- EC50 [1, 4]: > 316 nM
- Emax [2, 5]: > 75%
- EC50 ([2]; potency): > 10000 nM

Structure (SMILES): CC(C)n1nnc2cc(-c3noc(C4CCC4)n3)ccc21 [Compound 18, 5-(5-cyclobutyl-1,2,4-oxadiazol-3-yl)-1-(propan-2-yl)-1H-1,2,3-benzotriazole]
- Emax ([1]; inhibition of cAMP production): < 75%
- EC50 [1, 4]: > 316 nM
- Emax [2, 5]: < 75%
- EC50 ([2]; potency): > 10000 nM

Structure (SMILES): CCC1(CC)CC(=O)c2cc(-c3ncc(-c4ccccn4)cn3)ccc2O1 [Compound 530, 2,2-diethyl-6-(5-(pyridin-2-yl)pyrimidin-2-yl)chroman-4-one]
- Emax [1]: > 75%
- EC50 [1, 3]: > 316 nM
- Emax ([2]; CHO-K1): > 75%
- EC50 ([2]; S1P1): > 10000 nM

Structure (SMILES): FC(F)(F)c1cccc(-c2noc(-c3ccc4c(c3)nnn4C3CCCC3)n2)c1 [Compound 118, 1-cyclopentyl-5-{3-[3-(trifluoromethyl)phenyl]-1,2,4-oxadiazol-5-yl}-1H-1,2,3-benzotriazole]
- Emax ([1]; inhibition of cAMP production): < 75%
- EC50 [1, 4]: > 316 nM
- Emax [2, 5]: < 75%

Structure (SMILES): CC(C)n1nnc2cc(-c3nc(-c4ccc(-c5ccccc5)cn4)no3)ccc21 [Compound 9, 5-[3-(5-phenylpyridin-2-yl)-1,2,4-oxadiazol-5-yl]-1-(propan-2-yl)-1H-1,2,3-benzotriazole]
- Emax ([1]; inhibition of cAMP production): < 75%
- EC50 [1, 4]: > 316 nM
- Emax [2, 5]: < 75%
- EC50 ([2]; potency): > 10000 nM

Structure (SMILES): CCC1(CC)CC(=O)c2cc(-c3nnc(-c4ccccc4OC)o3)ccc2O1 [Compound 300, 2,2-diethyl-6-(5-(2-methoxyphenyl)-1,3,4-oxadiazol-2-yl)chroman-4-one]
- Emax ([1]; inhibition of cAMP production): > 75%
- EC50 [1, 4]: > 316 nM
- Emax [2, 5]: > 75%
- EC50 ([2]; potency): > 10000 nM

Structure (SMILES): N#Cc1cc(-c2nnc(-c3ccc4[nH]c(=O)oc4c3)o2)ccc1NCC(F)F [Compound 488, 2-[(2,2-difluoro-ethyl)amino]-5-[5-(2-oxo-2,3-dihydro-1,3-benzoxazol-6-yl)-1,3,4-oxadiazol-2-yl]benzonitrile]
- Emax [1]: < 75%
- EC50 [1, 3]: < 316 nM
- Emax ([2]; CHO-K1): > 75%
- EC50 ([2]; S1P1): < 10000 nM

Structure (SMILES): CC(C)Oc1ccc(-c2ncc(-c3ccc4c(c3)nnn4C(C)C)cn2)cc1C#N [Compound 595, 2-isopropoxy-5-(5-(1-isopropyl-1H-benzo[d][1,2,3]triazol-5-yl)pyrimidin-2-yl)benzonilrile]
- Emax [1]: > 75%
- EC50 [1, 3]: < 316 nM
- Emax ([2]; CHO-K1): > 75%
- EC50 ([2]; S1P1): < 10000 nM

Structure (SMILES): COc1ccc(-c2nsc(-c3ccc4[nH]ccc4c3)n2)cc1 [Compound 363, 5-[3-(4-methoxyphenyl)-1,2,4-thiadiazol-5-yl]-1H-indole]
- Emax ([1]; inhibition of cAMP production): < 75%
- EC50 [1, 4]: > 316 nM
- Emax [2, 5]: < 75%
- EC50 ([2]; potency): > 10000 nM

Structure (SMILES): COC(=O)CCn1nnc2cc(-c3noc(-c4ccccc4Br)n3)ccc21 [Compound 161, methyl 3-(5-(5-(2-bromophenyl)-1,2,4-oxadiazol-3-yl)-1H-benzo[d][1,2,3]triazol-1-yl)propanoate]
- Emax ([1]; inhibition of cAMP production): < 75%
- EC50 [1, 4]: > 316 nM
- Emax [2, 5]: > 75%
- EC50 ([2]; potency): > 10000 nM

Structure (SMILES): CCC1(CC)CC(=O)c2cc(-c3nc(-c4cnccc4C(F)(F)F)no3)ccc2O1 [Compound 558, 2,2-diethyl-6-(3-(4-(trifluoromethyl)pyridin-3-yl)-1,2,4-oxadiazol-5-yl)chroman-4-one]
- Emax [1]: > 75%
- EC50 [1, 3]: < 316 nM
- Emax ([2]; CHO-K1): > 75%
- EC50 ([2]; S1P1): < 10000 nM

Structure (SMILES): CCC1(CC)CC(=O)c2cc(-c3nc(-c4ccc5[nH]c(=O)[nH]c5c4)no3)ccc2O1 [Compound 539, 5-(5-(2,2-diethyl-4-oxochroman-6-yl)-1,2,4-oxadiazol-3-yl)-1H-benzo[d]imidazol-2(3H)-one]
- Emax [1]: < 75%
- EC50 [1, 3]: < 316 nM
- Emax ([2]; CHO-K1): < 75%
- EC50 ([2]; S1P1): < 10000 nM

Structure (SMILES): Cc1ccc2nc(-c3ccc4c(c3)nnn4CC(C)C)oc2c1 [Compound 448, 2-(1-isobutyl-1H-benzo[d][1,2,3]triazol-5-yl)-6-methyl-benzo[d]oxazole]
- Emax [1]: > 75%
- EC50 [1, 3]: > 316 nM
- Emax ([2]; CHO-K1): < 75%
- EC50 ([2]; S1P1): > 10000 nM

Structure (SMILES): N#Cc1cc(-c2nc(-c3ccc4c(c3)NC(=O)CC4)no2)ccc1NCC1CC1 [Compound 471, 2-((cyclopropyl-methyl)amino)-5-(3-(2-oxo-1,2,3,4-tetrahydroquinolin-7-yl)-1,2,4-oxadiazol-5-yl)benzonitrile]
- Emax [1]: > 75%
- EC50 [1, 3]: < 316 nM
- Emax ([2]; CHO-K1): > 75%
- EC50 ([2]; S1P1): < 10000 nM

Structure (SMILES): CCC1(CC)CC(=O)c2cc(-c3nc(-c4cccc(OC)n4)no3)ccc2O1 [Compound 553, 2,2-diethyl-6-[3-(6-methoxypyridin-2-yl)-1,2,4-oxadiazol-5-yl]-3,4-dihydro-2H-1-benzopyran-4-one]
- Emax [1]: > 75%
- EC50 [1, 3]: > 316 nM
- Emax ([2]; CHO-K1): < 75%
- EC50 ([2]; S1P1): < 10000 nM

Structure (SMILES): Cc1nc(-c2ccccc2)oc1-c1cnc2c(c1)CC(=O)N2 [Compound 360, 5-(4-methyl-2-phenyl-1,3-oxazol-5-yl)-1H,2H,3H-pyrrolo[2,3-b]pyridin-2-one]
- Emax ([1]; inhibition of cAMP production): < 75%
- EC50 [1, 4]: > 316 nM
- Emax [2, 5]: < 75%
- EC50 ([2]; potency): > 10000 nM

Structure (SMILES): Cc1ccncc1-c1noc(-c2ccc3nnn(CC(C)C)c3c2)n1 [Compound 3, 1-(2-methylpropyl)-6-[3-(4-methylpyridin-3-yl)-1,2,4-oxadiazol-5-yl]-1H-1,2,3-benzotriazole]
- Emax ([1]; inhibition of cAMP production): > 75%
- EC50 [1, 4]: < 316 nM
- Emax [2, 5]: > 75%
- EC50 ([2]; potency): < 10000 nM

Structure (SMILES): N#Cc1cc(-c2nnc(-c3ccc4c(c3)CCC(=O)N4)o2)ccc1NCCF [Compound 476, 2-[(2-fluoroethyl)amino]-5-[5-(2-oxo-1,2,3,4-tetrahydroquinolin-6-yl)-1,3,4-oxadiazol-2-yl]benzonitrile]
- Emax [1]: > 75%
- EC50 [1, 3]: < 316 nM
- Emax ([2]; CHO-K1): < 75%
- EC50 ([2]; S1P1): < 10000 nM

Structure (SMILES): OCCCn1nnc2cc(-c3noc(-c4ccccc4Br)n3)ccc21 [Compound 24, 3-(5-(5-(2-bromophenyl)-1,2,4-oxadiazol-3-yl)-1H-benzo[d][1,2,3]triazol-1-yl)propan-1-ol]
- Emax ([1]; inhibition of cAMP production): > 75%
- EC50 [1, 4]: > 316 nM
- Emax [2, 5]: < 75%
- EC50 ([2]; potency): > 10000 nM

Structure (SMILES): Cc1ccncc1-c1noc(-c2ccc3c(c2)NC(=O)CN3)n1 [Compound 613, 7-[3-(4-methylpyridin-3-yl)-1,2,4-oxadiazol-5-yl]-1,2,3,4-tetra-hydroquinoxalin-2-one]
- Emax [1]: < 75%
- EC50 [1, 3]: > 316 nM
- Emax ([2]; CHO-K1): < 75%
- EC50 ([2]; S1P1): > 10000 nM

Structure (SMILES): CCC1(CC)CC(=O)c2cc(-c3nc(-c4cccnn4)no3)ccc2O1 [Compound 621, 2,2-diethyl-6-(3-(pyridazin-3-yl)-1,2,4-oxadiazol-5-yl)chroman-4-one]
- Emax [1]: > 75%
- EC50 [1, 3]: > 316 nM
- Emax ([2]; CHO-K1): > 75%
- EC50 ([2]; S1P1): > 10000 nM

Structure (SMILES): Cc1cn(C)nc1-c1noc(-c2ccc3c(c2)nnn3CC(C)(C)O)n1 [Compound 518, 1-{5-[3-(1,4-dimethyl-1H-pyrazol-3-yl)-1,2,4-oxadiazol-5-yl]-1H-1,2,3-benzotriazol-1-yl}-2-methylpropan-2-ol]
- Emax [1]: > 75%
- EC50 [1, 3]: > 316 nM
- Emax ([2]; CHO-K1): < 75%
- EC50 ([2]; S1P1): > 10000 nM

Structure (SMILES): CCC1(CC)CC(=O)c2cc(-c3ncc(-c4ccncc4)cn3)ccc2O1 [Compound 510, 2,2-diethyl-6-(5-(pyridin-4-yl)pyrimidin-2-yl)chroman-4-one]
- Emax [1]: < 75%
- EC50 [1, 3]: < 316 nM
- Emax ([2]; CHO-K1): > 75%
- EC50 ([2]; S1P1): < 10000 nM

Structure (SMILES): N#Cc1cc(-c2nnc(-c3cccc4[nH]cnc34)o2)ccc1NCC(F)F [Compound 586, 5-[5-(1H-1,3-benzodiazol-4-yl)-1,3,4-oxadiazol-2-yl]-2-[(2,2-difluoro-ethyl)amino]benzonitrile]
- Emax [1]: > 75%
- EC50 [1, 3]: < 316 nM
- Emax ([2]; CHO-K1): > 75%
- EC50 ([2]; S1P1): < 10000 nM
